The numbers were not newly measured in the CATMoS acute toxicity set (Mansouri et al. 2021), which cites them from elsewhere.

Structures are written as SMILES. Several values for one entry are separate records, joined by “and”; a condition that tells them apart may be missing. Equal entries are not always repeated.

This series can be described thus: rat acute oral toxicity. The note with it: in vivo.
Take `O=C(O)CN(CCOCCOCCN(CC(=O)O)CC(=O)O)CC(=O)O`: the LD50 was 4000 mg/kg and 3590 mg/kg.

`CN1CC[C@@]2(C)c3cc(OC(=O)NCCCCCCCCCCN4CCCCC4)ccc3N(C)[C@@H]12`: the LD50 is 15.3 mg/kg.

Regarding `CC(C)c1ccc(N)cc1`, the LD50 was 985 mg/kg.

`CC1(C)NC(=O)NC1=O`: the LD50 was 7800 mg/kg.

Turning to `Clc1ccc2c(c1)C(c1ccccc1)=NCc1nncn1-2`, the 50% lethal dose (LD50) is 2500 mg/kg.

For the compound `O=C(O)Cc1sc(-c2ccccc2)nc1-c1ccc(Cl)cc1`, the LD50 is 409 mg/kg.

For the compound `CCCCNC(=S)NCCCC`, the LD50 was 350 mg/kg.

Turning to `COc1ccc(C(=O)CCC(=O)O)c2ccccc12`, the LD50 was 1800 mg/kg.

Regarding `CC(C)(C)C(=O)COc1ccc(Cl)cc1`, the LD50 is 4650 mg/kg.

On to `Cc1ccc(C2(O)CCN(CCCC(=O)c3ccc(F)cc3)CC2)cc1`, for which the LD50 is 152 mg/kg.

Take `CC(=O)C1(O)Cc2c(O)c3c(c(O)c2C(OC2CC(N)C(O)C(C)O2)C1)C(=O)c1c(O)cccc1C3=O` (configuration not stated): the LD50 was 23 mg/kg.

For `CCCC(C)(COC(N)=O)COC(=O)NC(C)C` (configuration not stated), the LD50 was 1320 mg/kg.

Take `CCCCCOc1ccc(Br)cc1COCCN1CCOCC1`: the median lethal dose (LD50) was 1200 mg/kg.

Take `COP(N)(=S)Oc1cc(Cl)c(Cl)cc1Cl` (configuration not stated): the LD50 is 700 mg/kg.

As to `C=CCC1(C(C)CCC)C(=O)N=C(O)NC1=O` (configuration not stated), the LD50 was 125 mg/kg.

With `NC1CCCc2ccccc2C1` (configuration not stated), the LD50 was 270 mg/kg.

`CN(C)CC/C=C1\c2ccccc2COc2ccccc21`: the LD50 was 147 mg/kg.
